Active and inactive are the calls of the source. How the calls were made is not given here.
System: CCRIS mutagenicity, Ames/micronucleus/aberration tests
Test: CCRIS mutagenicity studies
[1] = Test System: AMES SALMONELLA TYPHIMURIUM, Strain/Indicator: TA98, Metabolic Activation: NONE, Method: STANDARD PLATE
[2] = Test System: AMES SALMONELLA TYPHIMURIUM, Strain/Indicator: TA98, Metabolic Activation: RAT, LIVER, S-9, AROCLOR 1254, Method: STANDARD PLATE
[3] = Test System: AMES SALMONELLA TYPHIMURIUM, Strain/Indicator: TA100, Metabolic Activation: NONE, Method: STANDARD PLATE
[4] = Test System: AMES SALMONELLA TYPHIMURIUM, Strain/Indicator: TA100, Metabolic Activation: RAT, LIVER, S-9, AROCLOR 1254, Method: STANDARD PLATE
[5] = Test System: AMES SALMONELLA TYPHIMURIUM, Strain/Indicator: TA97, Metabolic Activation: HAMSTER, LIVER, S-9, AROCLOR 1254 (10 OR 30%), Method: PREINCUBATION
[6] = Test System: AMES SALMONELLA TYPHIMURIUM, Strain/Indicator: TA97, Metabolic Activation: NONE, Method: PREINCUBATION
[7] = Test System: AMES SALMONELLA TYPHIMURIUM, Strain/Indicator: TA97, Metabolic Activation: RAT, LIVER, S-9, AROCLOR 1254 (10 OR 30%), Method: PREINCUBATION
[8] = Test System: AMES SALMONELLA TYPHIMURIUM, Strain/Indicator: TA98, Metabolic Activation: HAMSTER, LIVER, S-9, AROCLOR 1254 (10 OR 30%), Method: PREINCUBATION
[9] = Test System: AMES SALMONELLA TYPHIMURIUM, Strain/Indicator: TA98, Metabolic Activation: NONE, Method: PREINCUBATION
[10] = Test System: AMES SALMONELLA TYPHIMURIUM, Strain/Indicator: TA98, Metabolic Activation: RAT, LIVER, S-9, AROCLOR 1254 (10 OR 30%), Method: PREINCUBATION
[11] = Test System: AMES SALMONELLA TYPHIMURIUM, Strain/Indicator: TA100, Metabolic Activation: HAMSTER, LIVER, S-9, AROCLOR 1254 (10 OR 30%), Method: PREINCUBATION
[12] = Test System: AMES SALMONELLA TYPHIMURIUM, Strain/Indicator: TA100, Metabolic Activation: NONE, Method: PREINCUBATION
[13] = Test System: AMES SALMONELLA TYPHIMURIUM, Strain/Indicator: TA100, Metabolic Activation: RAT, LIVER, S-9, AROCLOR 1254 (10 OR 30%), Method: PREINCUBATION
[14] = Test System: AMES SALMONELLA TYPHIMURIUM, Strain/Indicator: TA1535, Metabolic Activation: HAMSTER, LIVER, S-9, AROCLOR 1254 (10 OR 30%), Method: PREINCUBATION
[15] = Test System: AMES SALMONELLA TYPHIMURIUM, Strain/Indicator: TA1535, Metabolic Activation: NONE, Method: PREINCUBATION
[16] = Test System: AMES SALMONELLA TYPHIMURIUM, Strain/Indicator: TA1535, Metabolic Activation: RAT, LIVER, S-9, AROCLOR 1254 (10 OR 30%), Method: PREINCUBATION

Measured: mutagenic call

C1=Cc2cc3ccccc3c3cccc1c23
active: [2] active; positive | [4] active; positive
inactive: [1] inactive; negative | [3] inactive; negative

CCCCOC(=O)[C@@H](C)Oc1ccc(Oc2ccc(C#N)cc2F)cc1
inactive: End Point: In vitro chromosomal aberrations, Test System: Chinese hamster lung (CHL) cells, Metabolic Activation: Rat, liver, S-9, Aroclor 1254 inactive; negative | End Point: In vivo micronucleus, Test System: Bone marrow polychromatic erythgrocytes, Species: Mouse, Strain/Sex: ICR (Crj:CD-1)/ Female, Route: Oral (Gavage) inactive; negative | End Point: In vivo micronucleus, Test System: Bone marrow polychromatic erythgrocytes, Species: Mouse, Strain/Sex: ICR (Crj:CD-1)/ Male, Route: Oral (Gavage) inactive; negative | End Point: In vivo micronucleus, Test System: Bone marrow polychromatic erythrocytes, Species: Mouse, Strain/Sex: ICR (Crj:CD-1)/ Female, Route: Oral (Gavage) inactive; negative | End Point: In vivo micronucleus, Test System: Bone marrow polychromatic erythrocytes, Species: Mouse, Strain/Sex: ICR (Crj:CD-1)/ Male, Route: Oral (Gavage) inactive; negative | Test System: Ames Salmonella typhimurium, Strain/Indicator: TA98, Metabolic Activation: None, Method: Plate incorporation inactive; negative | Test System: Ames Salmonella typhimurium, Strain/Indicator: TA98, Metabolic Activation: Rat, liver, S-9, Aroclor-1254, Method: Plate incorporation inactive; negative | Test System: Ames Salmonella typhimurium, Strain/Indicator: TA100, Metabolic Activation: None, Method: Plate incorporation inactive; negative | Test System: Ames Salmonella typhimurium, Strain/Indicator: TA100, Metabolic Activation: Rat, liver, S-9, Aroclor-1254, Method: Plate incorporation inactive; negative | Test System: Ames Salmonella typhimurium, Strain/Indicator: TA1535, Metabolic Activation: None, Method: Plate incorporation inactive; negative | Test System: Ames Salmonella typhimurium, Strain/Indicator: TA1535, Metabolic Activation: Rat, liver, S-9, Aroclor-1254, Method: Plate incorporation inactive; negative | Test System: Ames Salmonella typhimurium, Strain/Indicator: TA1537, Metabolic Activation: None, Method: Plate incorporation inactive; negative | Test System: Ames Salmonella typhimurium, Strain/Indicator: TA1537, Metabolic Activation: Rat, liver, S-9, Aroclor-1254, Method: Plate incorporation inactive; negative | Test System: E. coli, Strain/Indicator: WP2 uvrA, Metabolic Activation: None, Method: Standard plate inactive; negative | Test System: E. coli, Strain/Indicator: WP2 uvrA, Metabolic Activation: Rat, liver, S-9, Aroclor-1254, Method: Standard plate inactive; negative | Test System: Mouse lymphoma, Strain/Indicator: L5178Y cells (TK+/TK-), Metabolic Activation: None, Method: Suspension/plate inactive; negative | Test System: Mouse lymphoma, Strain/Indicator: L5178Y cells (TK+/TK-), Metabolic Activation: Rat, liver, S-9, Aroclor-1254, Method: Suspension/plate inactive; negative
active: End Point: In vitro chromosomal aberrations, Test System: Chinese hamster lung (CHL) cells, Metabolic Activation: None active; positive (ploidy)

ClC(Cl)=C(Cl)c1ccc(Cl)c(Cl)c1Cl
inactive: [1] inactive; negative | [2] inactive; negative | [3] inactive; negative | [4] inactive; negative

CS(=O)(=O)Nc1ccc(Nc2c3ccccc3nc3ccc(N=[N+]=[N-])cc23)cc1
active: Test System: AMES SALMONELLA TYPHIMURIUM, Strain/Indicator: TA1537, Metabolic Activation: NONE, Method: STANDARD PLATE active; positive

Nc1c(S(=O)(=O)O)cc(Nc2cccc(S(=O)(=O)CCOS(=O)(=O)O)c2)c2c1C(=O)c1ccccc1C2=O
active: Test System: MOUSE LYMPHOMA, Strain/Indicator: L5178Y (TK+/TK-), Metabolic Activation: NONE, Method: SUSPENSION/PLATE active; positive

c1ccc2c(c1)ccc1cc3c(ccc4ccncc43)cc12
inactive: [1] inactive; negative | [3] inactive; negative
active: Test System: AMES SALMONELLA TYPHIMURIUM, Strain/Indicator: TA98, Metabolic Activation: RAT, LIVER, S-9, AROCLOR 1254 (10%), Method: STANDARD PLATE active; positive | [2] active; positive | Test System: AMES SALMONELLA TYPHIMURIUM, Strain/Indicator: TA100, Metabolic Activation: RAT, LIVER, S-9, 1254 (10%), Method: STANDARD PLATE active; positive | [4] active; positive

Cc1cc2c(cc1C)-c1cc3ccccc3c3cccc-2c13
active: Test System: AMES SALMONELLA TYPHIMURIUM, Strain/Indicator: TA100, Metabolic Activation: RAT, LIVER, S-9, AROCLOR 1254 active; positive

COC(F)(F)C(Cl)Cl
inactive: [5] inactive; negative | [6] inactive; negative | [7] inactive; negative | [8] inactive; negative | Test System: AMES SALMONELLA TYPHIMURIUM, Strain/Indicator: TA98, Metabolic Activation: HAMSTER, LIVER, S-9, AROCLOR 1254 (30%), Method: DESICCATOR inactive; negative | Test System: AMES SALMONELLA TYPHIMURIUM, Strain/Indicator: TA98, Metabolic Activation: NONE, Method: DESICCATOR inactive; negative | [9] inactive; negative | [10] inactive; negative | Test System: AMES SALMONELLA TYPHIMURIUM, Strain/Indicator: TA98, Metabolic Activation: RAT, LIVER, S-9, AROCLOR 1254 (30%), Method: DESICCATOR inactive; negative | [11] inactive; negative | Test System: AMES SALMONELLA TYPHIMURIUM, Strain/Indicator: TA100, Metabolic Activation: HAMSTER, LIVER, S-9, AROCLOR 1254 (30%), Method: DESICCATOR inactive; negative | Test System: AMES SALMONELLA TYPHIMURIUM, Strain/Indicator: TA100, Metabolic Activation: NONE, Method: DESICCATOR inactive; negative | [12] inactive; negative | [13] inactive; negative | Test System: AMES SALMONELLA TYPHIMURIUM, Strain/Indicator: TA100, Metabolic Activation: RAT, LIVER, S-9, AROCLOR 1254 (30%), Method: DESICCATOR inactive; negative | [14] inactive; negative | [15] inactive; negative | [16] inactive; negative

CCCN(CCCO)N=O
inactive: Test System: CHINESE HAMSTER V-79, Strain/Indicator: V-79/OUABAIN, Metabolic Activation: HAMSTER, HEPATOCYTES, Method: CELL-MEDIATED inactive; negative

CCCC(=O)OCc1ccccc1[N+](=O)[O-]
inactive: [9] inactive; negative | [12] inactive; negative | Test System: AMES SALMONELLA TYPHIMURIUM, Strain/Indicator: TA100, Metabolic Activation: RAT, LIVER, S-9, AROCLOR 1254, Method: PREINCUBATION inactive; negative

N#CCCC#N
inactive: [5] inactive; negative | [6] inactive; negative | [7] inactive; negative | [8] inactive; negative | [9] inactive; negative | [10] inactive; negative | [11] inactive; negative | [12] inactive; negative | [13] inactive; negative | [14] inactive; negative | [15] inactive; negative | [16] inactive; negative

Cn1c(N)nc2c3cnccc3ccc21
active: [2] active; positive

Nc1nc2c(ncn2CCC(CO)CO)c(=O)[nH]1
active: End Point: IN VITRO CHROMOSOMAL ABERRATIONS, Test System: CHO CELLS (CHO-HSVTK), Metabolic Activation: NONE active; positive (pulverized chromosome and condensation defects); concentration chosen

CC(=O)Oc1ccc2c(c1)OC1(C)OOC21C (configuration not stated)
active: [12] active; positive

— PubChem BioAssay AID1259407 (Chemical Carcinogenesis Research Information System (CCRIS), 2018)
